These results are taken from US9181214B2 (RHIZEN PHARMACEUTICALS SA, priority 2011, dated 2015).

Bounds are passed on as bounds.

One data set deals with T1, human GPR119 (Homo sapiens, UniProt Q8TDV5).
T1 construct: expressed in transfected cells; host or cells: HEK293 (transient transfection, Lipofectamine 2000)
T1 sequence (Q8TDV5 1-335): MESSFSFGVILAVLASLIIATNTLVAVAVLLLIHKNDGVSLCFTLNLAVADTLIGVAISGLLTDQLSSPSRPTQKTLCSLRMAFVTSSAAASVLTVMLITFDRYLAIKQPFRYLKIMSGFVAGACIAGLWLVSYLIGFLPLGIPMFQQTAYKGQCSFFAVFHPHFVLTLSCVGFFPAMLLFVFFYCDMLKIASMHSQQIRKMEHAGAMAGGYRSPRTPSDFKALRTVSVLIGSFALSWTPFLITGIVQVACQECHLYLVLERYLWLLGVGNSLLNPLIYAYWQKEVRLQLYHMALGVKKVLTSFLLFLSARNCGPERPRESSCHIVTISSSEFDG
In words: In vitro cyclic AMP assay (Cisbio HTRF) in HEK293 cells transfected with human GPR119. It counts as cell-based. Conditions: cAMP; for activation at 10 µM: 1 h, % Induction @ 10 μM; for EC50: Emax varies between 65 to 80%. In a few lines:
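HEK293 cells transiently transfected with human GPR119 plasmid (or empty vector), replated 24 h later and exposed to compounds for 60 min at room temperature. cAMP measured by HTRF (cAMP-d2/cryptate, 665/620 nm ratio) after 1 h lysis; EC50 from concentration-response curves, also % induction at 10 μM.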
On the technique in general: TR-FRET usually uses a lanthanide donor and a delayed reading to cut background.

A further data set has as its system C57Bl/6J mice. Kind of data set: Oral glucose tolerance test (OGTT) in C57Bl/6J mice. It counts as in vivo. The note with it: single oral dose 1 h before 2.0 g/kg oral glucose, sitagliptin 10 mg/kg, vs vehicle. As to the method: FIG. 1 is a graph of blood glucose over time in C57BI/6J mice according to the oral glucose tolerance test (Biological Assay Procedure E) before and after oral administration of vehicle (control), compound A (Example 64@ 30 mg/kg), or sitagliptin (10 mg/kg @ 10 mg/kg).
FIG. 2 is a graph of blood glucose over time in C57BI/6J mice according to the oral glucose tolerance test (Biological Assay Procedure E) before and after oral administration of vehicle (control), compound […] (Example 42 @ 10 mg/kg), or sitagliptin (10 mg/kg @ 10 mg/kg).
E: Oral Glucose Tolerance Test (OGTT) in C57Bl/6J Mice:
After the quarantine period, 6 hr fasted animals were randomized and divided into various groups depending on their blood glucose levels. Test compounds or standard drug (sitagliptin) was prepared as a suspension in a vehicle consisting of 0.5% methylcellulose and Tween 80 as a suspending agent. The standard drug, Compound A (example-64), Compound B (example-42) or vehicle were administered by oral gavage in a volume of 10 mL/kg. 1 h after the test compounds, standard drug and vehicle administration, blood was sampled from the tail vein of mice at time 0 min (baseline) and at 30, 60, 90 and 120 min after an oral glucose load of 2.0 g/kg of body weight. Food, but not water, was withheld from the cages during the course of experiment. The area under curve (AUC) of experimental animals was compared with that of vehicle-treated control group. The results are shown in FIGS. 1 and 2 and are discussed below.

[1] abbreviates: FIG. 2 study, Compound B 10 mg/kg.
[2] abbreviates: FIG. 1 study, Compound A 30 mg/kg.

For orientation: melting point means the temperature of the solid-liquid transition. As a reminder, the EC50 is the midpoint of the concentration-response curve. Higher therefore signals weaker potency.

On to `CC(C)NC(=O)c1ccc(-c2ccc3oc(C4CCN(C(=O)OC(C)C)CC4)nc3c2)cc1F` [EXAMPLE-46, Isopropyl 4-{5-[3-fluoro-4-(isopropylcarbamoyl)phenyl]benzo[d]oxazol-2-yl}piperidine-1-carboxylate], for which the melting point lay within 147 to 150 °C. Moreover, at human GPR119 (Table I), the activation at 10 µM is 53%.
The compound `CC(C)(C)OC(=O)N1CCC(c2ccc3nc(-c4ccc(C(F)(F)F)cc4)oc3c2)CC1` [EXAMPLE-84, Tert-butyl 4-{2-[4-(trifluoromethyl)phenyl]benzo[d]oxazol-6-yl}piperidine-1-carboxylate] had a melting point of 174 to 179 °C. Further, the activation at 10 µM on human GPR119 (Table II) is 13.2%.
For the compound `CNC(=O)c1ccc(-c2ccc3oc(C4CCN(C(=O)OC(C)C)CC4)nc3c2)cc1F` [EXAMPLE-42, Isopropyl 4-{5-[3-fluoro-4-(methylcarbamoyl)phenyl]benzo[d]oxazol-2-yl}piperidine-1-carboxylate], the melting point was 116 to 120 °C. For the same compound, in the data set on C57Bl/6J mice (setting [1]), the “lowered AUCglucose” value is given as 22%. Further, on human GPR119 (Table I), the activation at 10 µM was 78.4% and the concentration for a half-maximal effect (EC50) fell in the range of 25 to 50 nM.
Compound `CS(=O)(=O)N1CCC(c2nc3cc(-c4ccc(-n5cnnn5)cc4F)ccc3o2)CC1` [EXAMPLE-35, 5-[2-fluoro-4-(1H-tetrazol-1-yl)phenyl]-2-[1-(methylsulfonyl)piperidin-4-yl]benzo[d]oxazole] returned a melting point of 209 to 212 °C. Further, the activation at 10 µM on human GPR119 (Table I) is 0.28%.
As for `CC(C)OC(=O)N1CCC(c2ccc3oc(-c4ccc(S(C)(=O)=O)cc4F)nc3c2)CC1` [EXAMPLE-64, Isopropyl 4-{2-[2-fluoro-4-(methylsulfonyl)phenyl]benzo[d]oxazol-5-yl}piperidine-1-carboxylate], the “lowered AUCglucose” value in the data set with C57Bl/6J mice (setting [2]) is on record as 24%. Further, on human GPR119 (Table II), the activation at 10 µM was determined as 75% and the EC50 was at most 25 nM.
Consider `CC(C)OC(=O)N1CCC(c2nc3cc(-c4ccc(C(N)=O)cc4F)ccc3o2)CC1` [EXAMPLE-37, Isopropyl 4-[5-(4-carbamoyl-2-fluorophenyl)benzo[d]oxazol-2-yl]piperidine-1-carboxylate], for which the melting point lay within 194 to 197 °C. At human GPR119 (Table I), this compound yielded an activation at 10 µM of 6.56%.
For `CC(C)OC(=O)N1CCC(c2nc3cc(-c4ccc(C(=O)NCCO)c(F)c4)ccc3o2)CC1` [EXAMPLE-45, Isopropyl 4-{5-[3-fluoro-4-(2-hydroxyethylcarbamoyl)phenyl]benzo[d]oxazol-2-yl}piperidine-1-carboxylate] the same measures were 145 to 147 °C and 56.4%.
For `CC(C)CC(=O)N1CCC(c2nc3cc(-c4ccc(-n5cnnn5)cc4F)ccc3o2)CC1` [EXAMPLE-40, 1-{4-[5-(2-fluoro-4-(1H-tetrazol-1-yl)phenyl]benzo[d]oxazol-2-yl]piperidin-1-yl}-3-methylbutan-1-one] the same measures were 168 to 172 °C and 21.9%.
Regarding `NC(=O)c1ccc(-c2ccc3oc(C4CCN(c5ncc(F)cn5)CC4)nc3c2)cc1F` [EXAMPLE-51, 2-Fluoro-4-{2-[1-(5-fluoropyrimidin-2-yl)piperidin-4-yl]benzo[d]oxazol-5-yl}benzamide], the melting point lay within 226 to 229 °C. In addition, the activation at 10 µM on human GPR119 (Table I) was 38.7%.
For the compound `CC(C)OC(=O)N1CCC(c2nc3ccc(-c4ccc(C(F)F)cc4)cc3o2)CC1` [EXAMPLE-33, Isopropyl 4-{6-[4-(difluoromethyl)phenyl]benzo[d]oxazol-2-yl}piperidine-1-carboxylate], the melting point is 149 to 153 °C. This compound gave an activation at 10 µM at human GPR119 (Table I) of 10.6%.
With `CNC(=O)c1ccc(-c2ccc3oc(C4CCN(C(=O)OC(C)C)CC4)nc3c2)cc1C` [EXAMPLE-49, Isopropyl 4-{5-[3-methyl-4-(methylcarbamoyl)phenyl]benzo[d]oxazol-2-yl}piperidine-1-carboxylate], the melting point was 151 to 154 °C. The compound also gave an activation at 10 µM at human GPR119 (Table I) of 32.9%.
In the same order, the values of `CNS(=O)(=O)c1ccc(-c2ccc3oc(C4CCN(C(=O)OC(C)C)CC4)nc3c2)cc1` [EXAMPLE-47, Isopropyl 4-{5-[4-(N-methylsulfamoyl)phenyl]benzo[d]oxazol-2-yl}piperidine-1-carboxylate] are 179 to 181 °C and 33.1%.
With `CS(=O)(=O)c1ccc(-c2nc3cc(C4CCN(c5ncc(F)cn5)CC4)ccc3o2)c(F)c1` [EXAMPLE-81], the melting point was in the range of 220 to 222 °C. Besides, the activation at 10 µM at human GPR119 (Table II) turned out to be 43%.
Compound `CC(C)C(=O)N1CCC(c2nc3cc(-c4ccc(C(N)=O)c(F)c4)ccc3o2)CC1` [EXAMPLE-43, 2-Fluoro-4-[2-(1-isobutyrylpiperidin-4-yl)benzo[d]oxazol-5-yl]benzamide] showed a melting point of 193 to 196 °C. The same compound returned an activation at 10 µM at human GPR119 (Table I) of 48.8%.
In turn, `CC(C)OC(=O)N1CCC(c2nc3cc(-c4ccc(C(N)=O)cc4Cl)ccc3o2)CC1` [EXAMPLE-38, Isopropyl 4-[5-(4-carbamoyl-2-chlorophenyl)benzo[d]oxazol-2-yl]piperidine-1-carboxylate] gave a melting point of 178 to 182 °C. This compound registered an activation at 10 µM at human GPR119 (Table I) of 16.6%.
With `CC(C)OC(=O)N1CCC(c2nc3cc(-c4ccc(C(=O)NC5CC5)c(F)c4)ccc3o2)CC1` [EXAMPLE-50, Isopropyl 4-{5-[4-(cyclopropylcarbamoyl)-3-fluorophenyl]benzo[d]oxazol-2-yl}piperidine-1-carboxylate], the melting point is 162 to 165 °C. The same compound displayed an activation at 10 µM at human GPR119 (Table I) of 38.7%.
In the same order, the values of `CNC(=O)c1ccc(-c2ccc3oc(C4CCN(C(=O)OC(C)C)CC4)nc3c2)cn1` [EXAMPLE-48, Isopropyl 4-{5-[6-(methylcarbamoyl)pyridin-3-yl]benzo[d]oxazol-2-yl}piperidine-1-carboxylate] are 158 to 161 °C and 26.7%.
For `CC(C)OC(=O)N1CCC(c2nc3cc(-c4ccc(C(N)=O)cn4)ccc3o2)CC1` [EXAMPLE-36, Isopropyl 4-[5-(5-carbamoylpyridin-2-yl)benzo[d]oxazol-2-yl]piperidine-1-carboxylate] the same measures were 227 to 230 °C and 4.83%.
As for `N[C@@H](CC(=O)N1CCn2c(nnc2C(F)(F)F)C1)Cc1cc(F)c(F)cc1F` [Sitagliptin, sitagliptin, reference compound], the “lowered AUCglucose” value with C57Bl/6J mice (setting [2]) stood at 59%; in the data set on C57Bl/6J mice (setting [1]), 50%.
